Assay results: US20070021391A1, “Preventive/remedy for urinary disturbance” (priority 2003, published 2007)
“Also recorded” adds a separate entry of the source. Where two headings read alike, the source gives them in different places.

How the values were obtained:
[1] = test system: Hartley male guinea pig, urethane anesthesia; test: Urine flow dynamic parameters with oxybutynin and compound A (Example 6); format: in vivo; conditions: for Bladder volume, proportion for value before administration (%) / Maximum urine flow rate, proportion for value before administration (%) / Urination efficiency, proportion for value before administration (%): iv + oxybutynin 1 mg/kg, iv
Protocol: A Hartley male guinea pig with a body weight of about 500 g (Japan SLC Hamamatsu) was used. After urethane anesthesia (1.4 g/kg, i.p.), the medial incision of the lower abdomen was carried out, and the bladder was exposed. Two injection needles (20G) with which a polyethylene tube (PE-100, Becton Dickinson, Franklin Lakes, N.J., USA) was linked were inserted in the bladder, and one needle was used for injection of saline and another needle was used for measurement of the inner pressure of the bladder. Further, a cannula (PE-10, Becton Dickinson) for injection of phenylephrine was inserted in right common jugular vein. […] The amount of urine eliminated was measured by an electronic weighing machine (GX-400, A&D, Tokyo) and the inner pressure of the bladder was measured using a pressure transducer (AP641G, NIPPON KODEN Corporation, Tokyo). The analogue data of the weight of urine and the inner pressure of the bladder were inputted in a multi-channel data analyzer (MP-100A-CE, Biopac systems), and analyzed by a proprietary software (Acqknowledge 3.7.1, Biopac systems). The sampling interval of data was 0.1 sec and a low pass filter was applied to the data of discharge amount and urine flow rate at 0.5 Hz in order to remove noise. A delay time of 0.1 sec in weighing the urine was rectified, and the urine flow rate was determined by differentiating the value of discharge amount. The dynamic state parameter of the flow of urine below was measured. A bladder volume, the maximum urine flow rate, urination efficiency (=amount of urination/bladder volume). The effect of oxybutynin was analyzed by the paired t calibration and the concomitant use effect of the compound A was analyzed by Dunnett calibration.

[2] = target: T1, acetylcholine esterase of human erythrocyte origin (Homo sapiens, UniProt P22303); test: biochemical; format: biochemical
T1 construct: acetylcholine esterase of human erythrocyte origin; purchased Sigma, St. Louis, Mo., USA; host or cells: human erythrocytes
Protocol: The AChE inhibitory activity and the BuChE inhibitory activity were determined by a thiocholine method (Ellman method) using acetylcholine esterase of human erythrocyte origin (Sigma, St. Louis, Mo., USA) and butyrylcholine esterase of human serum origin (Biogenesis, Poole, UK). Acetylcholine esterase or butyrylcholine esterase was diluted to a concentration of 0.2 IU/mL with 80 mM tris-HCL buffers (pH=7.4) containing 0.3% bovine serum albumin (BSA) to prepare an enzyme preparation. […] The stock solution was diluted at 3-fold common ratio with 10% DMSO and 80 mM tris-HCl buffers containing 0.3% BSA. On a 96 wells microplate, 20 μL of the drug solution with a given concentration, 30 μL of 80 mM tris-HCl buffers containing 0.3% BSA and 50 μL of the enzyme preparation were distributed, and incubated at room temperature for 1 hour after shaking for 10 seconds. […] For the respective drugs, the test was repeated twice. The % of control of the increase in light absorption was calculated at each concentration with respect to the respective drugs. % of control=increase in light absorption of drug/increase in light absorption of control×100

[3] = target: T2, butyrylcholine esterase of human serum origin (Homo sapiens, UniProt P06276); test: biochemical; format: biochemical
T2 construct: butyrylcholine esterase of human serum origin; purchased Biogenesis, Poole, UK; host or cells: human serum

[4] = test system: Hartley male guinea pig, urethane anesthesia; test: Pressure/flow study using guinea pig (Example 3); format: in vivo; conditions: for Amount of urination, proportion for value before administration (%) / At maximum urine flow rate Inner pressure of bladder, proportion for value before administration (%) / Maximum urine flow rate, proportion for value before administration (%): i.v.; for Bladder compliance, proportion for value before administration (%) / Bladder volume, proportion for value before administration (%): iv
Protocol: A Hartley male guinea pig of 5 weeks old (Japan SLC) was used. After urethane anesthesia, the medial incision of the lower abdomen was carried out, and the bladder was exposed. Two injection needles (20G) with which a polyethylene tube (PE-100) was linked were inserted in the bladder, and one needle was used for injection of saline and another needle was used for measurement of the inner pressure of the bladder. The injection of saline was continuously carried out at a rate of 18 mL/h using a syringe pump (SP-100S, JMS, and Hiroshima), the injection was stopped after intermittent urination was confirmed 3 times at minimum, and the saline in the bladder was removed by suction. Injection was started again, and the injection was stopped when the raise of the inner pressure of the bladder just before urination was confirmed. The amount of urine excreted was measured by an electronic weighing machine (HX-400, A&D, and Tokyo) and the inner pressure of the bladder was measured using a pressure transducer (AP641G, NIPPON KODEN Corporation). The analogue data of the weight of urine and the inner pressure of the bladder were inputted in a multi-channel data analyzer (MP-100A-CE, Biopac systems), and analyzed by a proprietary software (Acqknowledge, Biopac systems). The sampling interval of data was 0.1 second and a low pass filter was applied to the data of discharge amount and urine flow rate at 0.5 Hz in order to remove noise. A delay time of 0.1 second in weighing the urine was rectified, and the urine flow rate was determined by differentiating the value of discharge amount. After a value before twice administration of the drug was measured, the drugs (the compound A, distigmine, neostigigmine and bethanechol) were intravenously administrated. Saline in the bladder was extracted after 10 minutes of administration of the compound A, bethanechol and neostigigmine and after 30 minutes of administration of distigmine, and injection was started again to measure data. The drugs were dissolved with distilled water so that administration volume was 0.5 mL/kg. Parameters (bladder volume, the amount of urination, the maximum urine flow rate, the inner pressure of the bladder at the maximum urine flow, bladder compliance) below were measured. The bladder compliance was calculated from intersection point (the threshold of bladder volume, threshold pressure) which was obtained by determining regression line in the respective curves of the inner pressure of the bladder at collection of urine and urinary reflex. The change rate before and after administration of the drug was calculated for the respective parameters and the calibration of significant difference was carried out by a solvent administration group and Dunnett calibration (Table 6 and Table 7).

[5] = test system: bladder muscle; parameters: species or system guinea pig
[6] = test system: Hartley male guinea pig; test: Acetylcholine inductive salivation in guinea pig (Example 5); format: in vivo
Protocol: (§1) A male SD rat (CLEA Japan Inc.) with a body weight of about 400 g or a Hartley male guinea pig with a body weight of 400 to 500 g (Japan SLC) were used. After urethane anesthesia, sanitary cotton preliminarily weighed was inserted in the mouth of the animal and acetylcholine was intravenously administrated. After 5 minutes, the sanitary cotton was taken out to be weighed and the amount of saliva secreted was measured. The drug was intravenously administrated at 10 min before the administration of acetylcholine. The effect of oxybutynin was analyzed by paired t calibration and the concomitant use effect of the compound A was analyzed by William calibration.

[7] = test system: male SD rat; test: Acetylcholine inductive salivation in rat (Example 5); format: in vivo; conditions: for Amount of saliva secreted: rat
Protocol: as §1

[8] = target: Butyrylcholine esterase (Rattus norvegicus, UniProt Q9JKC1); conditions: cited from earlier work
Butyrylcholine esterase, sequence (Q9JKC1 24-597): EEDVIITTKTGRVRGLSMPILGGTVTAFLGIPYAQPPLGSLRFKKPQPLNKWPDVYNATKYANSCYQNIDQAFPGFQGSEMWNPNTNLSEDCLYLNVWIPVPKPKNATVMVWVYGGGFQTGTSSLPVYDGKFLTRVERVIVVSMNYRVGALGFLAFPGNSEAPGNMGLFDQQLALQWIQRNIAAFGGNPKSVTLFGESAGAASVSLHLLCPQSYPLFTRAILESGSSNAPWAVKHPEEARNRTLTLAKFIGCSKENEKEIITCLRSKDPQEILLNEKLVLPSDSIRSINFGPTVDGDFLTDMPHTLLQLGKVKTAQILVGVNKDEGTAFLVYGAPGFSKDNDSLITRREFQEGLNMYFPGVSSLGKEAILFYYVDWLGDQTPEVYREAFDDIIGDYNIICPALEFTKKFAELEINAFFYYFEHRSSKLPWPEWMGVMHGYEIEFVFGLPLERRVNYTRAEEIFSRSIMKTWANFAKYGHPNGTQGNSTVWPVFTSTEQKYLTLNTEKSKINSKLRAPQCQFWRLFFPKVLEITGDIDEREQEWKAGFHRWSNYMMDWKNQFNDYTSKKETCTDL

T1 sequence (P22303 32-617 isoform P22303-2 limits assumed): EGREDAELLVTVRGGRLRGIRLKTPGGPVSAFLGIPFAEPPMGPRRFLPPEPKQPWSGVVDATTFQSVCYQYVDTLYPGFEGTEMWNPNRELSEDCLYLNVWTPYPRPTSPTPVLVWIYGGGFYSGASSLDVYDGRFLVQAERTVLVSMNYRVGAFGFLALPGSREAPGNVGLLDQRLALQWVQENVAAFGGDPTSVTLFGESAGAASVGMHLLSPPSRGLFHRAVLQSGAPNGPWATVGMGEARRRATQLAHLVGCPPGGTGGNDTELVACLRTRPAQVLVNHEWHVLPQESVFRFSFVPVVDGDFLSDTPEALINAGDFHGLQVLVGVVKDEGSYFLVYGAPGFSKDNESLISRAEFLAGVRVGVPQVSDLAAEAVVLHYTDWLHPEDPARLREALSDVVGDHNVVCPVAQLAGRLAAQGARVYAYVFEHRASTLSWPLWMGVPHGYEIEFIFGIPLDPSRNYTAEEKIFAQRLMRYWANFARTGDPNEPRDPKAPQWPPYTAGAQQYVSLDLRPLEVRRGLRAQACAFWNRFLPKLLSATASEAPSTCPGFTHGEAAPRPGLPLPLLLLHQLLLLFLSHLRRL
T2 sequence (P06276 29-602): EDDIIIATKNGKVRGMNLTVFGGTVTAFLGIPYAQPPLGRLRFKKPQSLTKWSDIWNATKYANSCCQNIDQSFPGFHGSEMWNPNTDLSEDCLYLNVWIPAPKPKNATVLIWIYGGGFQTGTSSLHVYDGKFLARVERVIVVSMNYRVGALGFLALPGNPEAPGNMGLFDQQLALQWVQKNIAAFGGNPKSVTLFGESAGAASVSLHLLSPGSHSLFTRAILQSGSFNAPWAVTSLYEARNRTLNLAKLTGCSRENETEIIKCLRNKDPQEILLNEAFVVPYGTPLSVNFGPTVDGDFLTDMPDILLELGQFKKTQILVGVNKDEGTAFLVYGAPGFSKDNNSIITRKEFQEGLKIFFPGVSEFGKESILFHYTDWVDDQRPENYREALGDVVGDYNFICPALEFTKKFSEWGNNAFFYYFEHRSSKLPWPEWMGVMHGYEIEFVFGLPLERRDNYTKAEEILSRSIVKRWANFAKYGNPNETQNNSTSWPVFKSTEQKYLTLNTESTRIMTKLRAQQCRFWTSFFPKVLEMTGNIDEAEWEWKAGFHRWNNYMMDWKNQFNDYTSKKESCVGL

For `O=C(CCC1CCN(Cc2cccc(F)c2)CC1)c1cc2c3c(c1)CCN3C(=O)CC2` [Compound A, 8-[3-[1-[(3-fluorophenyl)methyl]-4-piperidinyl]-1-oxopropyl]-1,2,5,6-tetrahydro-4H-pyrrolo[3,2,1-ij]quinolin-4-one], the “Bladder volume, proportion for value before administration (%)” value (“Bladder volume, proportion … (%)” below) ([1]; Compound A 0.003 mg/kg) was 21.07 ± 4.65%, the “Maximum urine flow rate, proportion for value before administration (%)” value (from here on “Maximum urine flow rate, proportion … (%)”) ([1]; Compound A 0.003 mg/kg) was −34.88 ± 8.22% and the “Urination efficiency, proportion for value before administration (%)” value ([1]; Compound A 0.003 mg/kg) was −61.67 ± 7.22%. The “Bladder volume, proportion … (%)” value ([1]; Compound A 0.01 mg/kg) was 24.73 ± 7.05%, the “Maximum urine flow rate, proportion … (%)” value ([1]; Compound A 0.01 mg/kg) was −9.04 ± 5.94 % and the “Urination efficiency, proportion for value before administration (%)” value ([1]; Compound A 0.01 mg/kg) was −30.23 ± 10.48 %. The “action on bladder volume, maximum urine flow rate and urination efficiency” value ([1]; oxybutynin 1 mg/kg, compound A 0.003, 0.01 mg/kg with oxybutynin) was “acted antagonistically against the lowering of the maximum urine flow rate and urination efficiency but did not influence the increase of bladder volume”, the “Acetylcholine esterase selective inhibitory activity” value [2] was no less than 6700 fold and the “inhibition of the activity of human acetylcholine esterase” value [2] was “inhibited the activity of human acetylcholine esterase”. For the same molecule, the Selectivity b/a ([2]; BuChE IC50/AChE IC50 (Table 2)) was greater than 6700, the IC50 ([2]; mean value of twice tests, read-out: Acetylcholine esterase IC50) was 1.5 nM and the “inhibitory activity for human butyrylcholine esterase” value [3] was “did not show inhibitory activity for human butyrylcholine esterase up to 10^−5 M”. The IC50 ([3]; mean value of twice tests, read-out: Butyrylcholine esterase IC50) was greater than 10000 nM, the “Amount of urination, proportion for value before administration (%)” value (“Amount of urination, proportion … (%)” below) ([4]; 0.003 mg/kg) was 150.2 ± 10.0 % and the “At maximum urine flow rate Inner pressure of bladder, proportion for value before administration (%)” value (“At maximum urine flow rate Inner pressure … (%)” for short) ([4]; 0.003 mg/kg) was 117.5 ± 6.2%. The “Maximum urine flow rate, proportion … (%)” value ([4]; 0.003 mg/kg) was 112.1 ± 9.7 %, the “Bladder compliance, proportion for value before administration (%)” value (from here on “Bladder compliance, proportion … (%)”) ([4]; 0.003 mg/kg) was 75.2 ± 4.8% and the “Bladder volume, proportion … (%)” value ([4]; 0.003 mg/kg) was 94.6 ± 5.8%. For the same molecule, the “Amount of urination, proportion … (%)” value ([4]; 0.01 mg/kg) was 165.2 ± 18.2 %, the “At maximum urine flow rate Inner pressure … (%)” value ([4]; 0.01 mg/kg) was 110.9 ± 6.0% and the “Maximum urine flow rate, proportion … (%)” value ([4]; 0.01 mg/kg) was 124.4 ± 10.3 %. For the same molecule, the “Bladder compliance, proportion … (%)” value ([4]; 0.01 mg/kg) was 82.6 ± 2.6%, the “Bladder volume, proportion … (%)” value ([4]; 0.01 mg/kg) was 101.7 ± 5.0% and the “Amount of urination, proportion … (%)” value ([4]; 0.03 mg/kg) was 164.0 ± 13.4 %. The “At maximum urine flow rate Inner pressure … (%)” value ([4]; 0.03 mg/kg) was 116.9 ± 8.4%, the “Maximum urine flow rate, proportion … (%)” value ([4]; 0.03 mg/kg) was 133.5 ± 15.3 % and the “Bladder compliance, proportion … (%)” value ([4]; 0.03 mg/kg) was 95.9 ± 18.0%. For the same molecule, the “Bladder volume, proportion … (%)” value ([4]; 0.03 mg/kg) was 117.2 ± 9.0 %, the “change of the parameters at urination and at collection of urine (text)” value ([4]; intravenous administration) was “increased significantly the amount of urination and the maximum urine flow rate at 0.003 mg/kg or more; also recorded: the increase of the bladder volume was confirmed at 0.03 mg/kg, and did not influence the bladder compliance” and the “Tension (%)” value ([5]; 0.003 μM, 30 minutes, change of basic tension, 100 mM KCl contraction = 100%) was −0.55 ± 0.60%. The “Tension (%)” value ([5]; 0.01 μM, 30 minutes, change of basic tension, 100 mM KCl contraction = 100%) was −0.26 ± 0.38%, the “Tension (%)” value ([5]; 0.03 μM, 30 minutes, change of basic tension, 100 mM KCl contraction = 100%) was 0.13 ± 0.80% and the “Tension (%)” value ([5]; 0.1 μM, 30 minutes, change of basic tension, 100 mM KCl contraction = 100%) was −0.74 ± 0.60%. For the same molecule, the “Tension (%)” value ([5]; Table 5: Compound A 0.1 μM with iso-OMPA 10 μM) was 1.96 ± 0.87 %, the “Tension (%)” value ([5]; Table 5: Compound A 0.1 μM with iso-OMPA 100 μM) was 5.43 ± 1.17 % and the “Tension (%)” value ([5]; Table 5: Compound A 0.1 μM, iso-OMPA 0 μM) was −0.47 ± 0.17%. The “effect on basic tension” value ([5]; compound A used in combination with iso-OMPA) was “significant increase in the basic tension was confirmed”, the “effect on basic tension” value ([5]; drug alone) was “did not influence the basic tension” and the “Amount of saliva secreted” value ([6]; Compound A 0.003 mg/kg + oxybutynin 1 mg/kg + acetylcholine 1 mg/kg) was 0.17 ± 0.03 g. For the same molecule, the “Amount of saliva secreted” value ([6]; Compound A 0.010 mg/kg + oxybutynin 1 mg/kg + acetylcholine 1 mg/kg) was 0.27 ± 0.02 g, the “action on acetylcholine-induced secretion of saliva” value ([7]; rat and guinea pig (Tables 9 and 10)) was “significantly antagonized” and the “Amount of saliva secreted” value ([7]; Compound A 0.001 mg/kg + oxybutynin 0.1 mg/kg + acetylcholine 1 mg/kg) was 0.22 ± 0.02 g. For the same molecule, the “Amount of saliva secreted” value ([7]; Compound A 0.003 mg/kg + oxybutynin 0.1 mg/kg + acetylcholine 1 mg/kg) was 0.26 ± 0.02 g and the “Amount of saliva secreted” value ([7]; Compound A 0.01 mg/kg + oxybutynin 0.1 mg/kg + acetylcholine 1 mg/kg) was 0.49 ± 0.03 g.
For `CNC(=O)Oc1ccc2c(c1)[C@]1(C)CCN(C)[C@@H]1N2C` [Physostigmine], the IC50 ([8]; Literature 4, read-out: Butyrylcholine esterase inhibitory activity (IC50)) is listed as 16 nM and the IC50 ([8]; Literature 6, read-out: Butyrylcholine esterase inhibitory activity (IC50)) is listed as 15 nM.
